Like-named read-outs stand apart in the source and are kept apart here.
Columns and labels:
[1] = biological target: T1, hVEGFR1-ECD (Homo sapiens, UniProt P17948); format: binding; details: for % displacement at 30 μM: 1% DMSO; for IC50: read-out: IC50 [95% CI]; for effect on the competition assay (in words): divalent cations, VEGF-A/hVEGFR1 interaction
T1 construct: purchased R&D Systems, Abingdon, UK

[2] = biological target: T2, hVEGFR1d2 (Homo sapiens, UniProt P17948); assay: analytical size exclusion chromatography of hVEGFR1d2 dimerization; details: 1 mM CuSO4, 160 μM hVEGFR1d2, gel filtration
T2 construct: The human hVEGFR1d2 protein (residues 132–226) was expressed and purified; made in house; host or cells: E. coli Rosetta-gami(DE3)pLysS is stated only for the 15N-labelled batch
Protocol: Because the competition assay results indicated a higher effect of Cu^2+ ions compared to Zn^2+ or Co^2, the Cu^2+-induced dimerization of hVEGFR1d2 in solution was verified using analytical gel-filtration chromatography. In the presence of 1 mM EDTA a single hVEGFR1d2 peak was observed, which represents the monomer (apparent MW = 14.9 kDa). In the presence of 1 mM CuSO4, two peaks were eluted corresponding respectively to the hVEGFR1d2 dimer (78% of absorption, apparent MW = 27.9 kDa) and monomer (apparent MW = 15.8 kDa). SDS-PAGE analysis confirmed that both peaks consist of hVEGFR1d2 (Fig 7).
The Cu^2+-induced dimerization of hVEGFR1d2 was confirmed using a precalibrated analytical gel-filtration column (Superdex™75 HR 10/300 Amersham GE Healthcare, Little Chalfont, UK). Prior to loading, samples were prepared by incubating 160 μM hVEGFR1d2 in a buffer containing 25 mM Tris-HCl, pH 8.1, 250 mM NaCl, and either 1 mM EDTA or 1mM CuSO4 for 30 min at 18°C. Subsequently, 50 μL of this mixture was loaded at 0.5 mL/min on the column that was equilibrated with the identical respective buffers. Elution peaks were integrated, and the corresponding fractions were analyzed on SDS-PAGE.

[3] = biotinylated VEGF-A165 displaced by 30 μM of metal on whole ECD (d1-d7) of VEGFR1
[4] = concentration displacing 50% of biotinylated VEGF-A165 binding on VEGFR1 (ECD)

T1 sequence (P17948 27-687 isoform P17948-2): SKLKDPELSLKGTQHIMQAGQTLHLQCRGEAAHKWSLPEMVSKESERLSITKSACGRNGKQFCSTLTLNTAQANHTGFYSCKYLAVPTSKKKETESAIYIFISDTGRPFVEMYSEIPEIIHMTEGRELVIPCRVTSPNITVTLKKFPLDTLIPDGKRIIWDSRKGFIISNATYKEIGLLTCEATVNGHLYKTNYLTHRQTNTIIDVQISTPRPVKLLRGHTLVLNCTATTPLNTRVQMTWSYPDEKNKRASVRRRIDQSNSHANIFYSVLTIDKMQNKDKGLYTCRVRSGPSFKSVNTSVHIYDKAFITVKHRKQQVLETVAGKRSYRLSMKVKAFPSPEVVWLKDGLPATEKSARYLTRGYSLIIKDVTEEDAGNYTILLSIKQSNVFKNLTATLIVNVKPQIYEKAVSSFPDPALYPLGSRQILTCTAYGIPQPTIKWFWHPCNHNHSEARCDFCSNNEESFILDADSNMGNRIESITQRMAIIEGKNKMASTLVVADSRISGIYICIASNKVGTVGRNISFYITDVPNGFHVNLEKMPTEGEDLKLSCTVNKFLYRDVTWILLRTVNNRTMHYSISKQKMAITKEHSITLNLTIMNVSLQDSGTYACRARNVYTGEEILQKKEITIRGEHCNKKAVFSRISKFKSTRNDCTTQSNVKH
T2 sequence (P17948 132-226): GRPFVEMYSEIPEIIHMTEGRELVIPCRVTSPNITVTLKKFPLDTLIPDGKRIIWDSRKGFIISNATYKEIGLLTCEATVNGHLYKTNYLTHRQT

| Structure (SMILES) | % displacement at 30 μM [1, 3] | IC50 [1, 4] | other results |
| --- | --- | --- | --- |
| O=S(=O)([O-])[O-].[Fe+2] [FeSO4] | 13 ± 5% |  |  |
| O=S(=O)([O-])[O-].[Zn+2] [ZnSO4] | 61 ± 2% | 5940 nM |  |
| O=S(=O)([O-])[O-].[Cu+2] [CuSO4] | 83 ± 8% | 970 nM | hVEGFR1d2 dimer peak, % of absorption [2]: 78% |
| [Cu+2] [Cu^2+] |  |  | disruption of the VEGF-A/hVEGFR1-ECD interaction in the presence of a metal chelator ([1]; with EDTA, 1 eq.): unable to disrupt the VEGF-A/hVEGFR1-ECD interaction |
| CC(=O)[O-].CC(=O)[O-].[Cu+2] [Cu(OAc)2] | 69 ± 2% | 1320 nM |  |
| [Cl][Cu][Cl] [CuCl2] | 87 ± 2% | 1260 nM |  |
| [Cl][Pd][Cl] [PdCl2] | 93 ± 1% | 250 nM |  |
| [Cd+2] [Cd^2+] |  |  | effect on the competition assay (in words) [1]: little |
| [Mn+2] [Mn^2+] |  |  | effect on the competition assay (in words) [1]: no effect |
| [Ni+2] [Ni^2+] |  |  | IC50 [95% CI] [1, 4]: within the micromolar range |
| O=S(=O)([O-])[O-].[Na+].[Na+] [Na2SO4] | 0% |  |  |
| [Cl-].[Cl-].[Co+2] [CoCl2] |  |  | % displacement at 30 μM [1]: 40 ± 2%; IC50 [1]: 47100 nM |
| [Co+2] [Co^2+] |  |  | effect on the competition assay (in words) [1]: little |
| O=S(=O)([O-])[O-].[Co+2] [CoSO4] | 44 ± 1% |  |  |
| [Fe+2] [Fe^2+] |  |  | effect on the competition assay (in words) [1]: no effect |
| O=S(=O)([O-])[O-].[Mn+2] [MnSO4] | 0% |  |  |
| [Zn+2] [Zn^2+] |  |  | IC50 [95% CI] [1, 4]: within the micromolar range |
| [Cl][Cd][Cl] [CdCl2] | 38 ± 4% | 48000 nM |  |
| CC(=O)[O-].CC(=O)[O-].[Pd+2] [Pd(OAc)2] | 97 ± 3% | 360 nM |  |
| O=S(=O)([O-])[O-].[Ni+2] [NiSO4] | 75 ± 1% | 3540 nM |  |

Reference: article PMC5152890 (PLoS ONE, 2016)
